Test results: US11753399B2, “Therapeutic compounds” (Gilead Sciences, Inc., priority 2018, dated 2023)

Assays:
[1] = tested on: HIV-IIIb; test: Test A: Antiviral Assay in MT4 Cells; assay type: cell-based, HIV-1; settings: inhibition of virus-induced cell killing, MT-4 cells, HIV-IIIb, 5 days, values normalized to 100%; for inhibition at 0.01 µM / inhibition at 0.2 µM: Human immunodeficiency virus 1, MT4, 120 h; for inhibition at 0.01 µM: read-out: % inhibition at 0.01 μM; for inhibition at 0.2 µM: read-out: % inhibition at 0.20 μM
Method: (§1) MT-4 cells were next mixed with HIV-IIIb at a multiplicity of infection (m.o.i.) of 0.003 for 1 hour, after which time 35 μL of virus/cell mixture (2000 cells) was immediately added to each well containing 40 μL of diluted compound. The plates were then incubated at 37° C. for 5 days. After 5 days of incubation, 25 μl of 2× concentrated CellTiter-Glo Reagent (catalog #G7571, Promega Biosciences, Inc., Madison, Wis.) was added to each well containing MT-4 cells. Cell lysis was carried out by incubating at room temperature for 10 min and then chemiluminescence was read.

[2] = tested on: MT-4 cells; test: Test B: Cytotoxicity Assay (same protocol as Test A, uninfected cells); assay type: cell-based; settings: uninfected MT-4 cells, 5 days, CellTiter-Glo
Method: as §1, with “read. […] Compound cytotoxicity and the corresponding CC50 values was determined using the same protocol as described in the antiviral assay (Test A) except that uninfected cells were used.” for “read.”

[3] = as above; assay type: cell-based; settings: human, uninfected MT-4 cells, CellTiter-Glo
Method: as §1, with “read. […] Compound cytotoxicity and the corresponding CC50 values was determined using the same protocol as described in the antiviral assay (Test A) except that uninfected cells were used.” for “read.”

[4] = from dose response curve at 0.01 μM (10 nM)
[5] = from dose response curve at 0.20 μM (200 nM)

| Compound | % inhibition at 0.01 μM [1, 4] [%] | % inhibition at 0.20 μM [1, 5] [%] | CC50 [2] [µM] | inhibition at 0.01 µM [1, 4] [%] | inhibition at 0.2 µM [1, 5] [%] | CC50 at 5 days [3] [µM] |
| --- | --- | --- | --- | --- | --- | --- |
| CC(C)(O)c1nnc(Nc2nn(CC(F)F)c3c(-c4ccc(C#CC(C)(C)S(=O)(=O)C5CC5)nc4[C@H](Cc4cc(F)cc(F)c4)NC(=O)Cn4nc(C(F)F)c5c4C(F)(F)[C@@H]4C[C@H]54)ccc(Cl)c23)o1 [Example 25] | 100 | 100 | > 57.1 | – | – | – |
| CC(C)(C#Cc1ccc(-c2ccc(Cl)c3c(NS(=O)(=O)C4CC4)nn(CC(F)F)c23)c([C@H](Cc2cc(F)cc(F)c2)NC(=O)Cn2nc(C(F)(F)F)c3c2C(F)(F)[C@@H]2C[C@H]32)n1)S(=O)(=O)C1CC1 [Example 23] | – | – | – | 100 | 100 | > 57.1 |
| CCS(=O)(=O)Nc1nn(C)c2c(-c3ccc(C#CC(C)(C)S(=O)(=O)C4CC4)nc3[C@H](Cc3cc(F)cc(F)c3)NC(=O)Cn3nc(C(F)F)c4c3C(F)(F)[C@@H]3C[C@H]43)ccc(Cl)c12 [Example 6] | – | – | – | 100 | 100 | > 57.1 |
| CC(C)(C#Cc1ccc(-c2ccc(Cl)c3c(NS(C)(=O)=O)nn(CC(F)(F)F)c23)c([C@H](Cc2cc(F)cc(F)c2)NC(=O)Cn2nc(C(F)F)c3c2C(F)(F)[C@@H]2C[C@H]32)n1)S(=O)(=O)C1CC1 [Example 17] | – | – | – | 98 | 98 | > 24 |
| CC(C)(C#Cc1ccc(-c2ccc(Cl)c3c(NS(=O)(=O)C4CC4)nn(CC(F)F)c23)c([C@H](Cc2cc(F)cc(F)c2)NC(=O)Cn2nc(C(F)F)c3c2C(F)(F)[C@@H]2C[C@H]32)n1)S(=O)(=O)C1CC1 [Example 16] | – | – | – | 98 | 98 | > 57.1 |
| CC1(S(=O)(=O)Nc2nn(CC(F)(F)F)c3c(-c4ccc(C#CC(C)(C)S(=O)(=O)C5CC5)nc4[C@H](Cc4cc(F)cc(F)c4)NC(=O)Cn4nc(C(F)F)c5c4C(F)(F)CCC5(F)F)ccc(Cl)c23)CC1 [Example 31] | – | – | – | 97 | 98 | > 57.1 |
| CC(C)(C#Cc1ccc(-c2ccc(Cl)c3c(NS(=O)(=O)C4CC4)nn(CC(F)(F)F)c23)c([C@H](Cc2cc(F)cc(F)c2)NC(=O)Cn2nc(C(F)F)c3c2C(F)(F)[C@@H]2C[C@H]32)n1)S(=O)(=O)C1CC1 [Example 35] | – | – | – | 97 | 97 | > 57.1 |
| CC(C)(C#Cc1ccc(-c2ccc(F)c3c(NS(=O)(=O)C4CC4)nn(CC(F)F)c23)c([C@H](Cc2cc(F)cc(F)c2)NC(=O)Cn2nc(C(F)(F)F)c3c2C(F)(F)[C@@H]2C[C@H]32)n1)S(=O)(=O)C1CC1 [Example 57] | – | – | – | 59 | 91 | > 57.1 |
| Cn1nc(NS(C)(=O)=O)c2c(Cl)ccc(-c3ccc(C#CC(C)(C)S(=O)(=O)C4CC4)nc3[C@H](Cc3cc(F)cc(F)c3)NC(=O)Cn3cnc4ccccc43)c21 [Example 62] | – | – | – | 56 | 93 | 30.7 |
| Cn1nc(NS(C)(=O)=O)c2c(Cl)ccc(-c3ccc(C#CC(C)(C)S(=O)(=O)C4CC4)nc3[C@H](Cc3cc(F)cc(F)c3)NC(=O)Cn3nc(C(F)F)c(Br)c3C(F)F)c21 [Example 58] | – | – | – | 95 | 95 | > 57.1 |
| CCS(=O)(=O)Nc1nn(CC(F)(F)F)c2c(-c3ccc(C#CC(C)(C)S(=O)(=O)C4CC4)nc3[C@H](Cc3cc(F)cc(F)c3)NC(=O)Cn3nc(C(F)(F)F)c4c3C(F)(F)[C@@H]3C[C@H]43)ccc(Cl)c12 [Example 67] | – | – | – | 13 | 0 | > 50 |
| Cn1nc(NS(C)(=O)=O)c2c(Cl)ccc(-c3ccc(C#CC(C)(C)S(=O)(=O)C4CC4)nc3[C@H](Cc3cc(F)cc(F)c3)NC(=O)Cn3cccn3)c21 [Example 50] | – | – | – | 0 | 36 | > 53.6 |
| CC1(S(=O)(=O)Nc2nn(CC(F)F)c3c(-c4ccc(C#CC(C)(C)S(=O)(=O)C5CC5)nc4[C@H](Cc4cc(F)cc(F)c4)NC(=O)Cn4nc(C(F)F)c5c4C(F)(F)[C@@H]4C[C@H]54)ccc(Cl)c23)CC1 [Example 2F, N—((S)-1-(3-(4-chloro-1-(2,2-difluoroethyl)-3-((1-methylcyclopropane)-1-sulfonamido)-1H-indazol-7-yl)-6-(3-(cyclopropylsulfonyl)-3-methylbut-1-yn-1-yl)pyridin-2-yl)-2-(3,5-difluorophenyl)ethyl)-2-((3bS,4aR)-3-(difluoromethyl)-5,5-difluoro-3b,4,4a,5-tetrahydro-1H-cyclopropa[3,4]cyclopenta[1,2-c]pyrazol-1-yl)acetamide] | – | – | – | 100 | 100 | > 57.1 |
| CC1(S(=O)(=O)Nc2nn(CC(F)(F)F)c3c(-c4ccc(C#CC(C)(C)S(=O)(=O)C5CC5)nc4[C@H](Cc4cc(F)cc(F)c4)NC(=O)Cn4nc(C(F)(F)F)c5c4C(F)(F)[C@@H]4C[C@H]54)ccc(Cl)c23)CC1 [Example 29] | – | – | – | 100 | 100 | > 57.1 |
| CC(C)(C#Cc1ccc(-c2ccc(Cl)c3c(NS(=O)(=O)CC4CC4)nn(CC(F)F)c23)c([C@H](Cc2cc(F)cc(F)c2)NC(=O)Cn2nc(C(F)F)c3c2C(F)(F)[C@@H]2C[C@H]32)n1)S(=O)(=O)C1CC1 [Example 26] | – | – | – | 100 | 100 | > 57.1 |
| Cn1nc(NS(C)(=O)=O)c2c(Cl)ccc(-c3ccc(C#CC(C)(C)S(=O)(=O)C4CC4)nc3[C@H](Cc3cc(F)cc(F)c3)NC(=O)Cn3nc(C(F)F)c(Cl)c3C(F)F)c21 [Example 56] | – | – | – | 0 | 91 | 23.5 |
| CC1(S(=O)(=O)Nc2nn(CC(F)F)c3c(-c4ccc(C#CC(C)(C)S(=O)(=O)C5CC5)nc4[C@H](Cc4cc(F)cc(F)c4)NC(=O)Cn4nc(C(F)(F)F)c5c4C(F)(F)[C@@H]4C[C@H]54)ccc(Cl)c23)CC1 [Example 22] | – | – | – | 94 | 94 | > 57.1 |
| Cn1nc(Nc2nnc(C(C)(C)O)o2)c2c(Cl)ccc(-c3ccc(C#CC(C)(C)S(=O)(=O)C4CC4)nc3[C@H](Cc3cc(F)cc(F)c3)NC(=O)Cn3nc(C(F)(F)F)c4c3C(F)(F)[C@@H]3C[C@H]43)c21 [Example 3F, N—((S)-1-(3-(4-chloro-3-((5-(2-hydroxypropan-2-yl)-1,3,4-oxadiazol-2-yl)amino)-1-methyl-1H-indazol-7-yl)-6-(3-(cyclopropylsulfonyl)-3-methylbut-1-yn-1-yl)pyridin-2-yl)-2-(3,5-difluorophenyl)ethyl)-2-((3bS,4aR)-5,5-difluoro-3-(trifluoromethyl)-3b,4,4a,5-tetrahydro-1H-cyclopropa[3,4]cyclopenta[1,2-c]pyrazol-1-yl)acetamide] | – | – | – | 100 | 100 | 21.8 |
| CC(C)(C#Cc1ccc(-c2ccc(Cl)c3c(NS(C)(=O)=O)nn(CC(F)(F)F)c23)c([C@H](Cc2cc(F)cc(F)c2)NC(=O)Cn2nc(C(F)(F)F)c3c2C(F)(F)[C@@H]2C[C@H]32)n1)S(=O)(=O)C1CC1 [Example 68] | – | – | – | 100 | 100 | > 50 |
| CC(C)(C#Cc1ccc(-c2ccc(Cl)c3c(NS(C)(=O)=O)nn(C4COC4)c23)c([C@H](Cc2cc(F)cc(F)c2)NC(=O)Cn2nc(C(F)(F)F)c3c2C(F)(F)[C@@H]2C[C@H]32)n1)S(=O)(=O)C1CC1 [Example 19] | – | – | – | 97 | 97 | > 57.1 |
| CC(C)(C#Cc1ccc(-c2ccc(Cl)c3c(NS(C)(=O)=O)nn(CC(F)F)c23)c([C@H](Cc2cc(F)cc(F)c2)NC(=O)Cn2nc(C(F)F)c3c2C(F)(F)[C@@H]2C[C@H]32)n1)S(=O)(=O)C1CC1 [Example 8] | – | – | – | 94 | 94 | > 57.1 |
| Cn1nc(Nc2nnc(C(C)(C)O)o2)c2c(Cl)ccc(-c3ccc(C#CC(C)(C)S(=O)(=O)C4CC4)nc3[C@H](Cc3cc(F)cc(F)c3)NC(=O)Cn3nc(C(F)F)c4c3C(F)(F)[C@@H]3C[C@H]43)c21 [Example 10] | – | – | – | 100 | 100 | 18.5 |
| Cn1nc(NS(=O)(=O)C2CC2)c2c(Cl)ccc(-c3ccc(C#CC(C)(C)S(=O)(=O)C4CC4)nc3[C@H](Cc3cc(F)cc(F)c3)NC(=O)Cn3nc(C(F)F)c4c3C(F)(F)[C@@H]3C[C@H]43)c21 [Example 12] | – | – | – | 94 | 94 | > 57.1 |
